# In PubChem BioAssay (NCI):
#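 Each compound was tested at five concentrations against cells in 96-well plates for 48 hours. At the GI50, growth is halved. At the TGI there is no net growth.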
# Key:
# Assay in all cases: NCI anticancer screen, dose series, 48 h
# SNB-75 CNS = system: SNB-75 CNS
# M14 melanoma = system: M14 melanoma
# DU-145 prostate = system: DU-145 prostate
# NCI-H460 lung = system: NCI-H460 lung
# SK-OV-3 ovarian = system: SK-OV-3 ovarian
# OVCAR-5 ovarian = system: OVCAR-5 ovarian
# SK-MEL-28 melanoma = system: SK-MEL-28 melanoma
# TK-10 renal = system: TK-10 renal
# EKVX NSCLC = system: EKVX NSCLC
# NCI-H522 lung = system: NCI-H522 lung
# SF-268 CNS = system: SF-268 CNS
# COLO 205 colon = system: COLO 205 colon
# SF-295 CNS = system: SF-295 CNS
# LOX IMVI melanoma = system: LOX IMVI melanoma
# HL-60(TB) leukemia = system: HL-60(TB) leukemia
# OVCAR-4 ovarian = system: OVCAR-4 ovarian
# SN12C renal = system: SN12C renal
# MOLT-4 leukemia = system: MOLT-4 leukemia
# MALME-3M melanoma = system: MALME-3M melanoma
# SNB-19 CNS = system: SNB-19 CNS
# CAKI-1 renal = system: CAKI-1 renal
# HS 578T breast = system: HS 578T breast
# MDA-MB-231 breast = system: MDA-MB-231 breast
# OVCAR-8 ovarian = system: OVCAR-8 ovarian
# NCI-H226 lung = system: NCI-H226 lung
# UACC-257 melanoma = system: UACC-257 melanoma
# NCI/ADR-RES ovarian = system: NCI/ADR-RES ovarian
# OVCAR-3 ovarian = system: OVCAR-3 ovarian
# K-562 leukemia = system: K-562 leukemia
compound,measurement,setting,value
CCN(CC)c1ccc(/C=N/NC(=O)c2ccccc2Nc2ccnc(C(F)(F)F)c2)c(O)c1,GI50,SNB-75 CNS,410 nM
same,TGI,SNB-75 CNS,> 100000 nM
same,GI50,M14 melanoma,175 nM
same,TGI,M14 melanoma,1190 nM
same,GI50,DU-145 prostate,134 nM
same,TGI,DU-145 prostate,> 100000 nM
same,GI50,NCI-H460 lung,68.1 nM
same,TGI,NCI-H460 lung,> 23400 nM
same,GI50,SK-OV-3 ovarian,169 nM
same,TGI,SK-OV-3 ovarian,> 100000 nM
same,GI50,OVCAR-5 ovarian,377 nM
same,TGI,OVCAR-5 ovarian,> 100000 nM
same,GI50,SK-MEL-28 melanoma,243 nM
same,TGI,SK-MEL-28 melanoma,> 100000 nM
same,GI50,TK-10 renal,365 nM
same,TGI,TK-10 renal,> 67400 nM
same,GI50,EKVX NSCLC,101 nM
same,TGI,EKVX NSCLC,4350 nM
same,GI50,NCI-H522 lung,287 nM
same,TGI,NCI-H522 lung,3550 nM
same,GI50,SF-268 CNS,94.2 nM
same,TGI,SF-268 CNS,> 100000 nM
same,GI50,COLO 205 colon,212 nM
same,TGI,COLO 205 colon,> 100000 nM
same,GI50,SF-295 CNS,184 nM
same,TGI,SF-295 CNS,6270 nM
same,GI50,LOX IMVI melanoma,83.7 nM
same,GI50,HL-60(TB) leukemia,162 nM
same,TGI,HL-60(TB) leukemia,518 nM
same,GI50,OVCAR-4 ovarian,85.6 nM
same,TGI,OVCAR-4 ovarian,> 100000 nM
same,GI50,SN12C renal,278 nM
same,TGI,SN12C renal,> 100000 nM
same,GI50,MOLT-4 leukemia,102 nM
same,TGI,MOLT-4 leukemia,4200 nM
same,GI50,MALME-3M melanoma,331 nM
same,TGI,MALME-3M melanoma,5170 nM
same,GI50,SNB-19 CNS,363 nM
same,TGI,SNB-19 CNS,> 100000 nM
same,GI50,CAKI-1 renal,57.7 nM
same,TGI,CAKI-1 renal,387 nM
same,GI50,HS 578T breast,1110 nM
same,TGI,HS 578T breast,> 51600 nM
same,GI50,MDA-MB-231 breast,261 nM
same,TGI,MDA-MB-231 breast,> 100000 nM
same,GI50,OVCAR-8 ovarian,220 nM
same,TGI,OVCAR-8 ovarian,> 100000 nM
same,GI50,NCI-H226 lung,235 nM
same,TGI,NCI-H226 lung,2370 nM
same,GI50,UACC-257 melanoma,303 nM
same,TGI,UACC-257 melanoma,1720 nM
same,GI50,NCI/ADR-RES ovarian,273 nM
same,TGI,NCI/ADR-RES ovarian,14000 nM
same,GI50,OVCAR-3 ovarian,84.5 nM
same,TGI,OVCAR-3 ovarian,> 100000 nM
same,GI50,K-562 leukemia,384 nM
same,TGI,K-562 leukemia,> 100000 nM
